Patent publication US10597388B2, “Pyridazinone herbicides” (FMC CORPORATION, priority 2014, dated 2020)

Experiments:
Format in all cases: in vivo
[1] = tested on: barley, winter (winter barley, Hordeum vulgare); assay: Test D controlled growth environment herbicide test, pre- and postemergence
How it was run: (§1)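 Species sown in silt loam and sprayed preemergence, or grown in peat-based medium to 2–18 cm (1- to 4-leaf stage) and sprayed postemergence, with compounds in non-phytotoxic solvent plus surfactant. Visual injury scored versus controls after 14–21 d in a controlled environment, 0 (no effect) to 100 (complete control).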

[2] = tested on: blackgrass (Alopecurus myosuroides); assay: as above
How it was run: as §1

[3] = tested on: chamomile (scentless chamomile, Matricaria inodora); assay: as above
How it was run: as §1

[4] = tested on: deadnettle (henbit deadnettle, Lamium amplexicaule); assay: as above
How it was run: as §1

[5] = tested on: field poppy (Papaver rhoeas); assay: as above
How it was run: as §1

[6] = tested on: foxtail, green (green foxtail, Setaria viridis); assay: as above
How it was run: as §1

[7] = tested on: lambsquarters (Chenopodium album); assay: as above
How it was run: as §1

[8] = tested on: mustard, wild (wild mustard, Sinapis arvensis); assay: as above
How it was run: as §1

[9] = tested on: radish, wild (wild radish, Raphanus raphanistrum); assay: as above
How it was run: as §1

[10] = tested on: windgrass (Apera spica-venti); assay: as above
How it was run: as §1

[11] = tested on: waterhemp_RES1 (ALS & Triazine resistant common waterhemp, Amaranthus rudis); assay: Test E greenhouse herbicide test, postemergence
How it was run: (§2)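 Resistant waterhemp plants grown in peat/vermiculite potting medium were sprayed postemergence at the 1- to 4-leaf stage (2–18 cm tall). After 14 to 21 d in the greenhouse, injury was visually rated against untreated controls on a 0–100 scale, where 0 is no effect and 100 is complete control.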

[12] = tested on: waterhemp_RES2 (ALS & HPPD resistant common waterhemp, Amaranthus rudis); assay: Test E greenhouse herbicide test, postemergence
How it was run: as §2

[13] = Postemergence, 31 g ai/ha, scale 0 to 100 (0 no effect, 100 complete control)
[14] = Postemergence, 125 g ai/ha, visual rating on scale 0 (no effect) to 100 (complete control), 14 to 21 d
[15] = Postemergence, 250 g ai/ha, scale 0 to 100 (0 no effect, 100 complete control)
[16] = Preemergence, 62 g ai/ha, scale 0 to 100 (0 no effect, 100 complete control)
[17] = Preemergence, 125 g ai/ha, scale 0 to 100 (0 no effect, 100 complete control)
[18] = Preemergence, 250 g ai/ha, scale 0 to 100, 0 no effect, 100 complete control
[19] = postemergence, 62 g ai/ha, scale 0 to 100, 0 no effect, 100 complete control
[20] = 31 g ai/ha, visual, scale 0 no effect to 100 complete control
[21] = 62 g ai/ha, scale 0 to 100 (0 no effect, 100 complete control)
[22] = 125 g ai/ha, scale 0 to 100 (0 no effect, 100 complete control)
[23] = 250 g ai/ha, scale 0 to 100 (0 no effect, 100 complete control)

Cc1ccc2ccccc2c1-c1c(OC(=O)OC(C)C)c(C)nn(C)c1=O [Compound 72]
Barley, Winter plant response rating [1, 13]: 10
Plant response rating, Barley, Winter [1, 14]: 30
Plant response rating, Barley, Winter [1, 15]: 35
Plant response rating (scale of 0 to 100), Barley, Winter ([1]; Preemergence, 31 g ai/ha): 5
Plant response rating, Barley, Winter [1, 16]: 25
Plant response rating, Barley, Winter [1, 17]: 50
Plant response rating, Barley, Winter [1, 18]: 75
Plant response rating, Barley, Winter [1, 19]: 20
Blackgrass plant response rating [2, 13]: 40
Plant response rating, Blackgrass [2, 14]: 75
Plant response rating, Blackgrass [2, 15]: 80
Plant response rating (scale of 0 to 100), Blackgrass ([2]; Preemergence, 31 g ai/ha): 15
Plant response rating, Blackgrass [2, 16]: 30
Plant response rating, Blackgrass [2, 17]: 55
Plant response rating, Blackgrass [2, 18]: 75
Plant response rating, Blackgrass [2, 19]: 70
Chamomile plant response rating [3, 13]: 75
Plant response rating, Chamomile [3, 14]: 85
Plant response rating, Chamomile [3, 15]: 100
Plant response rating, Chamomile [3, 19]: 80
Deadnettle plant response rating [4, 13]: 85
Plant response rating, Deadnettle [4, 14]: 100
Plant response rating, Deadnettle [4, 15]: 100
Plant response rating (scale of 0 to 100), Deadnettle ([4]; Preemergence, 31 g ai/ha): 5
Plant response rating, Deadnettle [4, 16]: 15
Plant response rating, Deadnettle [4, 17]: 65
Plant response rating, Deadnettle [4, 18]: 70
Plant response rating, Deadnettle [4, 19]: 90
Field Poppy plant response rating [5, 13]: 80
Plant response rating, Field Poppy [5, 14]: 100
Plant response rating, Field Poppy [5, 15]: 100
Plant response rating (scale of 0 to 100), Field Poppy ([5]; Preemergence, 31 g ai/ha): 100
Plant response rating, Field Poppy [5, 16]: 100
Plant response rating, Field Poppy [5, 17]: 100
Plant response rating, Field Poppy [5, 18]: 100
Plant response rating, Field Poppy [5, 19]: 90
Foxtail, Green plant response rating [6, 13]: 60
Plant response rating, Foxtail, Green [6, 14]: 70
Plant response rating, Foxtail, Green [6, 15]: 75
Plant response rating (scale of 0 to 100), Foxtail, Green ([6]; Preemergence, 31 g ai/ha): 20
Plant response rating, Foxtail, Green [6, 16]: 30
Plant response rating, Foxtail, Green [6, 17]: 60
Plant response rating, Foxtail, Green [6, 18]: 85
Plant response rating, Foxtail, Green [6, 19]: 65
Lambsquarters plant response rating [7, 13]: 80
Plant response rating, Lambsquarters [7, 14]: 90
Plant response rating, Lambsquarters [7, 15]: 100
Plant response rating (scale of 0 to 100), Lambsquarters ([7]; Preemergence, 31 g ai/ha): 35
Plant response rating, Lambsquarters [7, 16]: 100
Plant response rating, Lambsquarters [7, 17]: 95
Plant response rating, Lambsquarters [7, 18]: 95
Plant response rating, Lambsquarters [7, 19]: 95
Mustard, Wild plant response rating [8, 13]: 85
Plant response rating, Mustard, Wild [8, 14]: 100
Plant response rating, Mustard, Wild [8, 15]: 100
Plant response rating (scale of 0 to 100), Mustard, Wild ([8]; Preemergence, 31 g ai/ha): 0
Plant response rating, Mustard, Wild [8, 16]: 25
Plant response rating, Mustard, Wild [8, 17]: 60
Plant response rating, Mustard, Wild [8, 18]: 80
Plant response rating, Mustard, Wild [8, 19]: 100
Radish, Wild plant response rating [9, 13]: 75
Plant response rating, Radish, Wild [9, 14]: 90
Plant response rating, Radish, Wild [9, 15]: 95
Plant response rating (scale of 0 to 100), Radish, Wild ([9]; Preemergence, 31 g ai/ha): 0
Plant response rating, Radish, Wild [9, 16]: 0
Plant response rating, Radish, Wild [9, 17]: 50
Plant response rating, Radish, Wild [9, 18]: 50
Plant response rating, Radish, Wild [9, 19]: 80
Windgrass plant response rating [10, 13]: 65
Plant response rating, Windgrass [10, 14]: 80
Plant response rating, Windgrass [10, 15]: 85
Plant response rating (scale of 0 to 100), Windgrass ([10]; Preemergence, 31 g ai/ha): 25
Plant response rating, Windgrass [10, 16]: 65
Plant response rating, Windgrass [10, 17]: 80
Plant response rating, Windgrass [10, 18]: 90
Plant response rating, Windgrass [10, 19]: 75
Plant response rating, Waterhemp_RES1 [11, 20]: 60
Plant response rating, Waterhemp_RES1 [11, 21]: 80
Plant response rating, Waterhemp_RES1 [11, 22]: 80
Plant response rating, Waterhemp_RES1 [11, 23]: 90
Plant response rating, Waterhemp_RES2 [12, 20]: 35
Plant response rating, Waterhemp_RES2 [12, 21]: 40
Plant response rating, Waterhemp_RES2 [12, 22]: 50
Plant response rating, Waterhemp_RES2 [12, 23]: 65
